Results: PubChem BioAssay AID1963858 (Molecular Pharmacology Branch, DTP, NCI, 2024)
Where “and” joins values, the source holds several entries; their conditions need not be identical. Equal values may be shown once.

Test system: HOP-62 multicell spheroids with HUVEC/MSC, viability
Test: Anticancer human tumor HOP-62 cell line growth inhibition [KRAS2];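 note: viability read after a week of compound exposure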;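 for viability, T/C: 100% = DMSO vehicle-treated spheroids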
Conditions: for viability, T/C: stronger effect = lower value
Text: Multicellular complex tumor spheroid response to RAS pathway inhibitors in combination with a targeted agents in patient-derived cell lines with oncogenic KRAS variants from multiple cancer types
A high-throughput screen of multi-cell type tumor spheroids was designed to identify active combinations of targeted small molecules and KRAS pathway inhibitors. Complex spheroids include a stromal component modeled by human endothelial cells (HUVEC) and fibroblasts modeled by human mesenchymal stem cells (MSCs). The concentration ranges selected for each drug and investigational agent were based upon clinically achievable concentrations if the clinical Cmax of the agent was known.
Compounds. The drugs and investigational agents: BI-3406 (NSC825286), BAY-293 (NSC824723), batoprotafib (TNO155; NSC825523), sotorasib (AMG 510; NSC818433), MRTX1257 (NSC819558), elimusertib (BAY 1895344; NSC800525), molibresib (GSK525762; NSC774829), temuterkib (LY3214996; NSC803410), venetoclax (NSC766270), alisertib (NSC759677), olaparib (NSC753686), talazoparib (NSC767125), erdafitinib (NSC781556), ipatasertib (NSC767898), cabozantinib (NSC761068), nintedanib (NSC756659), abemaciclib (NSC768073), docetaxel (NSC628503), trametinib (NSC758246), and sapanisertib (NSC764658) were obtained from the National Cancer Institute (NCI) Developmental Therapeutics Program Chemical Repository. The FDA-approved anticancer drug set is available from the Developmental Therapeutics Program. […] The stock solutions were prepared in dimethyl sulfoxide (DMSO, Sigma-Aldrich, St. Louis, MO, cat. D2650) at 800-fold the tested concentration and stored at -70 degrees C prior to their use. All drugs and investigational agents were tested over a range starting from a high concentration at or near the clinical Cmax and decreasing in half-log increments. If the clinical Cmax for an agent had not been determined, the highest concentration tested was 10 microM.
Cell Culture. All cells were maintained in an incubator at 37 degrees C and 5% CO2 with 95% humidity. The PDC lines were cultured according to standard operating procedures established by the NCI PDMR (https://pdmr.cancer.gov/sops/default.htm). Briefly, all PDCs were thawed and cultured in Matrigel-coated flasks prepared with a working solution of 1X Ham's F-12 nutrient mix, without supplementation (Invitrogen, Waltham, MA, cat. 11765054), 100 U/mL penicillin-streptomycin (Invitrogen, cat. 15140122), and 2.5% Matrigel (Corning Inc., Corning, NY, cat. 354248) for the first three passages. All PDCs were cultured in complete DMEM/F-12 media containing advanced DMEM/F-12 (Invitrogen, cat. 12634028), 4.9% defined fetal bovine serum, heat inactivated (HyClone Laboratories Inc., Logan, UT, cat. SH30070.03HI), 389 ng/mL hydrocortisone (Sigma-Aldrich, cat. H4001), 9.7 ng/mL human EGF recombinant protein (Invitrogen, cat. PHG0313), 23.4 microg/mL adenine (Sigma-Aldrich, cat. A2786), 97.3 U/mL penicillin-streptomycin (Invitrogen, cat. 15140122), 1.9 mM L-glutamine (Invitrogen, cat. 25030081), and 9.7 microM Y-27632 dihydrochloride (Tocris Bioscience, Bristol, United Kingdom, cat. 1254). The PDCs were cultured in complete DMEM/F12 media without 9.7 microM Y-27632 dihydrochloride for at least two passages prior to the screen. The established cell line HOP-62 was cultured in RPMI 1640 medium, HEPES (Invitrogen, cat. 22400105) with 10% defined fetal bovine serum (HyClone Laboratories Inc., cat. SH30070.03) and 2 mM L-glutamine (Invitrogen, cat. 25030081). The pooled donor HUVEC were cultured in endothelial cell growth medium 2 (PromoCell, Heidelberg, Germany, cat. C-22011) and the hMSC were cultured in mesenchymal stem cell growth medium 2 (PromoCell, cat. C-28009). For all experiments, HUVEC and hMSC were used at passages </=5, while the malignant cell lines were used at passages </=15. […]

[1] = curve of first compound, second compound 0.1 µM
[2] = curve of first compound, second compound 0.316 µM
[3] = curve of first compound, second compound 1 µM
[4] = curve of first compound, second compound 3.16 µM
[5] = curve of first compound, second compound 10 µM
[6] = second compound 0.1 µM, first compound 0.0316 µM
[7] = second compound 0.1 µM, first compound 0.1 µM
[8] = second compound 0.1 µM, first compound 0.316 µM
[9] = second compound 0.1 µM, first compound 1 µM
[10] = second compound 0.1 µM, first compound 3.16 µM
[11] = second compound 0.1 µM, first compound 10 µM
[12] = second compound 0.316 µM, first compound 0.0316 µM
[13] = second compound 0.316 µM, first compound 0.1 µM
[14] = second compound 0.316 µM, first compound 0.316 µM
[15] = second compound 0.316 µM, first compound 1 µM
[16] = second compound 0.316 µM, first compound 3.16 µM
[17] = second compound 0.316 µM, first compound 10 µM
[18] = second compound 1 µM, first compound 0.0316 µM
[19] = second compound 1 µM, first compound 0.1 µM
[20] = second compound 1 µM, first compound 0.316 µM
[21] = second compound 1 µM, first compound 1 µM
[22] = second compound 1 µM, first compound 3.16 µM
[23] = second compound 1 µM, first compound 10 µM
[24] = second compound 3.16 µM, first compound 0.0316 µM
[25] = second compound 3.16 µM, first compound 0.1 µM
[26] = second compound 3.16 µM, first compound 0.316 µM
[27] = second compound 3.16 µM, first compound 1 µM
[28] = second compound 3.16 µM, first compound 3.16 µM
[29] = second compound 3.16 µM, first compound 10 µM
[30] = second compound 10 µM, first compound 0.0316 µM
[31] = second compound 10 µM, first compound 0.1 µM
[32] = second compound 10 µM, first compound 0.316 µM
[33] = second compound 10 µM, first compound 1 µM
[34] = second compound 10 µM, first compound 3.16 µM
[35] = second compound 10 µM, first compound 10 µM

## COc1cc(Nc2ncc3c(n2)-c2ccc(Cl)cc2C(c2c(F)cccc2OC)=NC3)ccc1C(=O)O + CC1OCC2(CCN(c3cnc(Sc4ccnc(N)c4Cl)c(N)n3)CC2)C1N
[1]
  IC50: 183 nM
[2]
  IC50: 72.8 nM
[3]
  IC50: < 31.6 nM
[4]
  IC50: < 31.6 nM
[5]
  IC50: < 31.6 nM
[6]
  viability, T/C: 61.5%
[7]
  viability, T/C: 53.9%
[8]
  viability, T/C: 45.7%
[9]
  viability, T/C: 39%
[10]
  viability, T/C: 26.9%
[11]
  viability, T/C: 20.1%
[12]
  viability, T/C: 56%
[13]
  viability, T/C: 47.8%
[14]
  viability, T/C: 38.5%
[15]
  viability, T/C: 31.3%
[16]
  viability, T/C: 22%
[17]
  viability, T/C: 16.3%
[18]
  viability, T/C: 34.6%
[19]
  viability, T/C: 29.7%
[20]
  viability, T/C: 27.1%
[21]
  viability, T/C: 26.1%
[22]
  viability, T/C: 21.1%
[23]
  viability, T/C: 15.4%
[24]
  viability, T/C: 21.9%
[25]
  viability, T/C: 18.9%
[26]
  viability, T/C: 22.2%
[27]
  viability, T/C: 21.7%
[28]
  viability, T/C: 14.7%
[29]
  viability, T/C: 11.4%
[30]
  viability, T/C: 22.7%
[31]
  viability, T/C: 17.1%
[32]
  viability, T/C: 18.4%
[33]
  viability, T/C: 17.4%
[34]
  viability, T/C: 16.2%
[35]
  viability, T/C: 10.7%

## O=C(c1cc(Cc2n[nH]c(=O)c3ccccc23)ccc1F)N1CCN(C(=O)C2CC2)CC1
Compound 0.0316 µM
  viability, T/C: 105% [middle of 5 runs]
Compound 0.1 µM
  viability, T/C: 102% [middle of 5 runs]
Compound 0.316 µM
  viability, T/C: 93.2% [middle of 5 runs]
Compound 10 µM
  viability, T/C: 50.4% [middle of 5 runs]
Curve of compound
  IC50: 4880 nM and > 10000 nM and 4580 nM

## CCN1CCN(Cc2ccc(Nc3ncc(F)c(-c4cc(F)c5nc(C)n(C(C)C)c5c4)n3)nc2)CC1 + CNCc1ccccc1-c1csc(C(C)Nc2nc(C)nc3cc(OC)c(OC)cc23)c1
[1]
  IC50: > 1000 nM
[2]
  IC50: > 1000 nM
[3]
  IC50: 257 nM
[4]
  IC50: < 3.16 nM
[5]
  IC50: < 3.16 nM
Second compound 0.1 µM, first compound 0.00316 µM
  viability, T/C: 102%
Second compound 0.1 µM, first compound 0.01 µM
  viability, T/C: 112%
[6]
  viability, T/C: 95.3%
[7]
  viability, T/C: 90.4%
[8]
  viability, T/C: 72.6%
[9]
  viability, T/C: 54.4%
Second compound 0.316 µM, first compound 0.00316 µM
  viability, T/C: 108%
Second compound 0.316 µM, first compound 0.01 µM
  viability, T/C: 90.4%
[12]
  viability, T/C: 81.3%
[13]
  viability, T/C: 71%
[14]
  viability, T/C: 71.7%
[15]
  viability, T/C: 48.4%
Second compound 1 µM, first compound 0.00316 µM
  viability, T/C: 97%
Second compound 1 µM, first compound 0.01 µM
  viability, T/C: 73.6%
[18]
  viability, T/C: 72.9%
[19]
  viability, T/C: 52.6%
[20]
  viability, T/C: 51.4%
[21]
  viability, T/C: 41.4%
Second compound 3.16 µM, first compound 0.00316 µM
  viability, T/C: 0.39%
Second compound 3.16 µM, first compound 0.01 µM
  viability, T/C: 0.5%
[24]
  viability, T/C: 0.14%
[25]
  viability, T/C: 0.21%
[26]
  viability, T/C: 0.17%
[27]
  viability, T/C: 0.16%
Second compound 10 µM, first compound 0.00316 µM
  viability, T/C: 0.1%
Second compound 10 µM, first compound 0.01 µM
  viability, T/C: 0.1%
[30]
  viability, T/C: 0.1%
[31]
  viability, T/C: 0.11%
[32]
  viability, T/C: 0.1%
[33]
  viability, T/C: 0.16%

## CC1(C)CCC(CN2CCN(c3ccc(C(=O)NS(=O)(=O)c4ccc(NCC5CCOCC5)c([N+](=O)[O-])c4)c(Oc4cnc5[nH]ccc5c4)c3)CC2)=C(c2ccc(Cl)cc2)C1 + COc1cc2nc(C)nc(NC(C)c3cc(N)cc(C(F)(F)F)c3)c2cc1OC1CCOC1
[1]
  IC50: 4240 nM
[2]
  IC50: 4580 nM
[3]
  IC50: 3430 nM
[4]
  IC50: 1660 nM
[5]
  IC50: 370 nM
[6]
  viability, T/C: 84.1%
[7]
  viability, T/C: 92.3%
[8]
  viability, T/C: 79.6%
[9]
  viability, T/C: 82.6%
[10]
  viability, T/C: 58%
[11]
  viability, T/C: 26%
[12]
  viability, T/C: 87.5%
[13]
  viability, T/C: 88.7%
[14]
  viability, T/C: 78.2%
[15]
  viability, T/C: 75.3%
[16]
  viability, T/C: 65%
[17]
  viability, T/C: 23.2%
[18]
  viability, T/C: 85.1%
[19]
  viability, T/C: 88%
[20]
  viability, T/C: 78.9%
[21]
  viability, T/C: 64.6%
[22]
  viability, T/C: 57.8%
[23]
  viability, T/C: 14.5%
[24]
  viability, T/C: 78%
[25]
  viability, T/C: 75.6%
[26]
  viability, T/C: 62.8%
[27]
  viability, T/C: 62.2%
[28]
  viability, T/C: 38.5%
[29]
  viability, T/C: 26%
[30]
  viability, T/C: 55.6%
[31]
  viability, T/C: 56%
[32]
  viability, T/C: 52.8%
[33]
  viability, T/C: 39.5%
[34]
  viability, T/C: 24%
[35]
  viability, T/C: 7.27%

## COc1cc(Nc2ncc3c(n2)-c2ccc(Cl)cc2C(c2c(F)cccc2OC)=NC3)ccc1C(=O)O + C=CC(=O)N1CCN(c2nc(OCC3CCCN3C)nc3c2CCN(c2cccc4cccc(C)c24)C3)CC1CC#N
Curve of first compound, second compound 0.0316 µM
  IC50: < 31.6 nM
[1]
  IC50: < 31.6 nM
[2]
  IC50: < 31.6 nM
[3]
  IC50: < 31.6 nM
[4]
  IC50: < 31.6 nM
Second compound 0.0316 µM, first compound 0.0316 µM
  viability, T/C: 42.7%
Second compound 0.0316 µM, first compound 0.1 µM
  viability, T/C: 35.9%
Second compound 0.0316 µM, first compound 0.316 µM
  viability, T/C: 32.6%
Second compound 0.0316 µM, first compound 1 µM
  viability, T/C: 27.1%
Second compound 0.0316 µM, first compound 3.16 µM
  viability, T/C: 19.7%
Second compound 0.0316 µM, first compound 10 µM
  viability, T/C: 14.6%
[6]
  viability, T/C: 35.7%
[7]
  viability, T/C: 28.9%
[8]
  viability, T/C: 25.1%
[9]
  viability, T/C: 22.3%
[10]
  viability, T/C: 17.4%
[11]
  viability, T/C: 11.7%
[12]
  viability, T/C: 24.4%
[13]
  viability, T/C: 19.5%
[14]
  viability, T/C: 17%
[15]
  viability, T/C: 14.3%
[16]
  viability, T/C: 15%
[17]
  viability, T/C: 11.3%
[18]
  viability, T/C: 20.6%
[19]
  viability, T/C: 15.5%
[20]
  viability, T/C: 16.6%
[21]
  viability, T/C: 16.3%
[22]
  viability, T/C: 13.9%
[23]
  viability, T/C: 9.29%
[24]
  viability, T/C: 10.8%
[25]
  viability, T/C: 1.27%
[26]
  viability, T/C: 4.55%
[27]
  viability, T/C: 7.12%
[28]
  viability, T/C: 1.43%
[29]
  viability, T/C: 0.67%
